Results: PMC8235214, “Purification, Identification, Activity Evaluation, and Stability of Antioxidant Peptides from Alcalase Hydrolysate of Antarctic Krill (Euphausia superba) Proteins” (Marine Drugs, 2021)
Where two headings read alike, the source gives them in different places. Blank lines part the entries; values can stand above or below the molecule they belong to. Ends that are not written are not given here. Peptide text beside a SMILES is read from it.

Experiments:
[1] = cited from earlier work
Excerpt: In the organism, HO· can oxidize and damage most of the macromolecules due to its high reactivity characteristic. Therefore, looking for natural antioxidant peptides with high HO· scavenging ability is key for discovering new antioxidants. […] In addition, EC50 values of ESP6, ESP7, and ESP8 were also lower ...

[2] = design: method as in 6 sources, ref 36 = [36]; PMID 23411302; doi:10.1016/j.foodchem.2012.12.002; 36. Wang B. Li L. Chi C.F. Ma J.H. Luo H.Y. Xu Y.F. Purification and Characterization of a novel antioxidant peptide derived from blue mussel ( Mytilus edulis ) protein hydrolysate Food Chem. 2013 138 ||| ref 45 = [45]; doi:10.1016/j.foodres.2010.02.009; 45. You L. Zhao M. Regenstein J.M. Ren J. Purification and identification of antioxidative peptides from loach ( Misgurnus anguillicaudatus ) protein hydrolysate by consecutive chromatography and elec ||| ref 46 = [46]; PMID 22652579; doi:10.1016/j.peptides.2012.05.013; 46. Wang B. Li Z.R. Chi C.F. Zhang Q.H. Luo H.Y. Preparation and evaluation of antioxidant peptides from ethanol-soluble proteins hydrolysate of Sphyrna lewini muscle Peptides 2012 36 240 250 10.1016/ ||| ref 49 = [49]; PMID 31058809; doi:10.3390/md17050263; 49. Pan X.Y. Wang Y.M. Li L. Chi C.F. Wang B. Four antioxidant peptides from protein hydrolysate of red stingray ( Dasyatis akajei ) cartilages: Isolation, identification, and in vitro activity evalua ||| ref 22 = [22]; PMID 32164197; doi:10.3390/md18030153; 22. Hu X.M. Wang Y.M. Zhao Y.Q. Chi C.F. Wang B. Antioxidant peptides from the protein hydrolysate of monkfish ( Lophius litulon ) muscle: Purification, identification, and cytoprotective function on ||| ...; conditions: cited from earlier work
[3] = cited from earlier work; remark: listed apart in the source
Excerpt: However, no significant difference was found among the EC50 values of ESP6, ESP7, and ESP8 (p > 0.05).

[4] = Simulated GI digestion stability (pepsin then pancreatin, DPPH· scavenging read-out); format: in vitro ADME; conditions: peptide 1.0 mg/mL; two-stage model, pepsin 120 min then pancreatin 60 min (0 to 180 min); mean ± SD, n = 3
Protocol: The influence of simulate GI digestion on the stability of ESP6, ESP7, and ESP8 was evaluated by the two-stage digestion model. In short, ESP6, ESP7, and ESP8 were separately treated with pepsin for 120 min and pancreatin for 60 min.
The DPPH· scavenging ratio (%) of ESP6, ESP7, and ESP8 at 1.0 mg/mL were measured at the set time to analyze their stability.

[5] = cited from earlier work; for Stability under thermal and pH treatments (HO· scavenging activity): high temperature (>60 °C) and strong acid and alkali conditions; for Stability under thermal and pH treatments: 25–100 °C or pH 3–11 treatments
Excerpt: The pH and thermal stability of antioxidant peptides are key properties for their applications in food and health products, and tolerance property on simulated GI digestion treatments can help to assess the rate of metabolism and timeliness of antioxidant peptides in vivo [25, 52, 68, 69].

[6] = peptides from miiuy croaker swim bladders
[7] = peptides from Mytilus edulis and scales of croceine croaker
[8] = peptides from swim bladders of miiuy croaker
[9] = peptides from Raja porosa cartilage
[10] = peptides from red stingray cartilages
[11] = peptides from skipjack tuna heads
[12] = peptides from giant squid protein
[13] = peptides from Sphyrna lewini muscle

Molecule: Trp-Glu-Gly-Pro-Lys [WEGPK, antioxidant peptide from heads of bluefin leatherjacket]
EC50 on HO· ([1]; peptide from heads of bluefin leatherjacket): 5567 µg/mL

Molecule: FPYLRH [FPYLRH, antioxidant peptide from miiuy croaker swim bladders]
EC50 on HO· [1, 6]: 680 ± 50 µg/mL
EC50 on DPPH· [2, 6]: 510 ± 30 µg/mL

Molecule: Tyr-Pro-Pro-Ala-Lys [YPPAK, antioxidant peptide from blue mussel (Mytilus edulis)]
EC50 on HO· ([1]; peptide from blue mussel): 228 µg/mL
EC50 on DPPH· [2, 7]: 2620 µg/mL
EC50 on O2−· ([3]; peptide from blue mussel): 72 µg/mL

Molecule: Phe-Thr-Gly-Met-Asp [FTGMD, antioxidant peptide from miiuy croaker swim bladders]
EC50 on HO· [1, 6]: 2310 ± 120 µg/mL
EC50 on O2−· [3, 8]: 3040 ± 270 µg/mL

Molecule: Tyr-Leu-Pro-Tyr-Ala [YLPYA, antioxidant peptide from swim bladders of miiuy croaker]
EC50 on O2−· [3, 8]: 3610 ± 250 µg/mL

Molecule: Gly-Ile-Glu-Trp-Ala [GIEWA, antioxidant peptide from miiuy croaker swim bladders]
EC50 on DPPH· [2, 6]: 780 ± 50 µg/mL

Molecule: GPAGDY [GPAGDY, antioxidant peptide from Raja porosa cartilage]
EC50 on O2−· [3, 9]: 1660 µg/mL

Molecule: Tyr-Phe-Leu-Trp-Pro [YFLWP, antioxidant peptide from miiuy croaker muscle]
EC50 on O2−· ([3]; peptide from miiuy croaker muscle): 3080 µg/mL

Molecule: Val-Pro-Arg [VPR]
EC50 on DPPH· [2, 10]: 4610 µg/mL

Molecule: Tyr-Trp-Asp-Ala-Trp [YWDAW, antioxidant peptide from monkfish muscle]
EC50 on DPPH· ([2]; peptides from monkfish muscle): 510 µg/mL

Decrease of DPPH· scavenging ratio by simulated GI digestion [4]: 6.41 ± 0.96%
Molecule: CC(C)C[C@H](NC(=O)[C@@H](N)CO)C(=O)N1CCC[C@H]1C(=O)N[C@@H](Cc1ccc(O)cc1)C(=O)O [ESP6, Ser-Leu-Pro-Tyr] (H-SLPY-OH)

Molecule: EDIVCW [EDIVCW, antioxidant peptide from monkfish muscle]
EC50 on DPPH· ([2]; peptides from monkfish muscle): 390 µg/mL

Molecule: Trp-Met-Phe-Asp-Trp [WMFDW, antioxidant peptide from skipjack tuna heads]
EC50 on O2−· [3, 11]: 560 µg/mL
Stability under thermal and pH treatments (HO· scavenging activity) [5]: significantly influenced

Molecule: Phe-Ser-Gly-Leu-Arg [FSGLR, antioxidant peptide from miiuy croaker swim bladders]
EC50 on HO· [1, 6]: 2450 ± 250 µg/mL
EC50 on O2−· [3, 8]: 3350 ± 200 µg/mL

Molecule: NGPLQAGQPGER [NGPLQAGQPGER, antioxidant peptide from giant squid protein]
EC50 on HO· [1, 12]: 123 µg/mL

Molecule: Met-Ile-Leu-Met-Arg [MILMR, antioxidant peptide from croceine croaker muscle]
EC50 on O2−· ([3]; peptide from croceine croaker muscle): 993 µg/mL

Molecule: Ile-Glu-Glu-Glu-Gln [IEEEQ, antioxidant peptide from red stingray cartilages]
EC50 on DPPH· [2, 10]: 4010 µg/mL

Molecule: Glu-Met-Gly-Pro-Ala [EMGPA, antioxidant peptide from skipjack tuna heads]
EC50 on O2−· [3, 11]: 710 µg/mL
Stability under thermal and pH treatments (HO· scavenging activity) [5]: significantly influenced

Molecule: Pro-Tyr-Phe-Asn-Lys [PYFNK, antioxidant peptide from Sphyrna lewini muscle]
EC50 on HO· [1, 13]: 240 µg/mL
EC50 on DPPH· [2, 13]: 4110 µg/mL
EC50 on O2−· [3, 13]: 110 µg/mL

Molecule: ATSHH
Stability under thermal and pH treatments (DPPH· scavenging activity) ([5]; 50–90 °C and strong acids and bases): will decrease its partial DPPH· scavenging activity

Molecule: Val-Pro-Asp-Asp [VPDD, antioxidant peptide from miiuy croaker swim bladders]
EC50 on HO· [1, 6]: 2850 ± 190 µg/mL

Molecule: FIMGPY [FIMGPY, antioxidant peptide from Raja porosa cartilage]
EC50 on O2−· [3, 9]: 1610 µg/mL

Molecule: Gly-Phe-Tyr-Ala-Ala [GFYAA, antioxidant peptide from miiuy croaker swim bladders]
EC50 on HO· [1, 6]: 2350 ± 220 µg/mL
EC50 on O2−· [3, 8]: 3030 ± 190 µg/mL

Molecule: IVAGPQ [IVAGPQ, antioxidant peptide from skate (Raja porosa) cartilages]
EC50 on HO· ([1]; peptide from skate cartilages): 5030 µg/mL
EC50 on O2−· [3, 9]: 1820 µg/mL

Decrease of DPPH· scavenging ratio by simulated GI digestion [4]: 6.48 ± 1.03%
Molecule: C[C@H](NC(=O)[C@H](CCC(=O)O)NC(=O)[C@H](Cc1ccc(O)cc1)NC(=O)[C@@H](N)CCC(=O)O)C(=O)O [ESP8, Glu-Tyr-Glu-Ala] (H-EYEA-OH)

Molecule: WAFAPA
Stability under thermal and pH treatments [5]: high stability

Molecule: Pro-Ser-Tyr-Val [PSYV, antioxidant peptide from weatherfish loach]
EC50 on HO· ([1]; peptide from weatherfish loach): 2640 µg/mL
EC50 on DPPH· ([2]; peptide from weather loach): 17000 µg/mL

Molecule: MYPGLA
Stability under thermal and pH treatments [5]: high stability

Molecule: FDSGPAGVL [FDSGPAGVL, antioxidant peptide from giant squid protein]
EC50 on HO· [1, 12]: 78 µg/mL

Molecule: GPAGPAG [GPAGPAG, antioxidant peptide from scales of croceine croaker]
EC50 on DPPH· [2, 7]: 675 µg/mL

Molecule: Leu-Glu-Glu-Glu-Glu [LEEEE, antioxidant peptide from red stingray cartilages]
EC50 on DPPH· [2, 10]: 3690 µg/mL

Molecule: Trp-Asp-Arg [WDR, antioxidant peptide from Sphyrna lewini muscle]
EC50 on HO· [1, 13]: 150 µg/mL
EC50 on DPPH· [2, 13]: 3630 µg/mL
EC50 on O2−· [3, 13]: 90 µg/mL

Molecule: Met-Glu-Pro-Val-Trp [MEPVW, antioxidant peptide from monkfish muscle]
EC50 on DPPH· ([2]; peptides from monkfish muscle): 620 µg/mL
EC50 on O2−· ([3]; peptide from monkfish muscle): 940 µg/mL

Molecule: Gly-Phe-Pro-Ser-Gly [GFPSG, antioxidant peptide from scales of croceine croaker]
EC50 on DPPH· [2, 7]: 283 µg/mL

Decrease of DPPH· scavenging ratio by simulated GI digestion [4]: 8.36 ± 0.59%
Molecule: CSCC[C@H](NC(=O)[C@@H]1CCCN1C(=O)[C@@H]1CCCN1C(=O)[C@H](Cc1ccc(O)cc1)NC(=O)[C@@H](N)CCC(N)=O)C(=O)N[C@@H](CCC(N)=O)C(=O)N[C@@H](Cc1ccc(O)cc1)C(=O)O [ESP7, Gln-Tyr-Pro-Pro-Met-Gln-Tyr] (H-QYPPMQY-OH)

Molecule: Trp-Met-Gly-Pro-Tyr [WMGPY, antioxidant peptide from skipjack tuna heads]
EC50 on O2−· [3, 11]: 380 µg/mL
Stability under thermal and pH treatments (HO· scavenging activity) [5]: significantly influenced

Molecule: VPDDD [antioxidant peptide from swim bladders of miiuy croaker]
EC50 on O2−· [3, 8]: 4110 ± 310 µg/mL
